Results reported in patent US7507568B2, “Three dimensional coordinates of HPTPbeta” (The Proctor & Gamble Company, priority 2002, dated 2009).

Biological target: T1, PTPbeta catalytic domain [SEQ ID NO: 7] (Homo sapiens, UniProt P23467)
T1 construct: made in house; host or cells: Escherichia coli BL21-RIL
Test: Inhibition of HPTPbeta (relative inhibitor potency, stated in words)
Assay type: biochemical
Details: qualitative comparison; no numerical values or assay method printed

T1 sequence (P23467 with tags, fused parts or gaps): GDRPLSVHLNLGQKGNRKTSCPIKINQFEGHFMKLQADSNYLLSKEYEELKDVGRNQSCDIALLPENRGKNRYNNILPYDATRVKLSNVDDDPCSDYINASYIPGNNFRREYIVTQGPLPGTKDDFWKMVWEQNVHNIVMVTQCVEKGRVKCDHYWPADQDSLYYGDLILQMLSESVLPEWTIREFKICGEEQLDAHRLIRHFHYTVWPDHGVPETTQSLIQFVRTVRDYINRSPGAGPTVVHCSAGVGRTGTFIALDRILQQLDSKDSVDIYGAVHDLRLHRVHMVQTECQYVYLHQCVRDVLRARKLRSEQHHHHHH

CNC(=O)[C@H](Cc1ccc(NS(=O)(=O)O)cc1)NC(=O)C(Cc1ccc(O)cc1)NC(=O)OC(C)(C)C (stereo in doubt) [Compound 2, {2-(4-Hydroxy-phenyl)-1-[1-methylcarbamoyl-2-(4-sulfoamino-phenyl)-ethylcarbamoyl]-ethyl}-carbamic acid tert-butyl ester]
inhibitor potency relative to Compound 1: more potent inhibitor than Compound 1
